Assay: Water retention property test 2 (hydrates)
Assay type: physicochemical
Details: hydrate (anhydrides: aqueous solution at mono- to trihydrate concentration); for Pre-test moisture rate: before the test; for Post-test moisture rate / Rate of reduction in moisture: unsealed, 24 hours at 40° C. and 25% RH
Method: (2) Water retention property test 2 The water retention property of the hydrate of each compound was evaluated. Hydrates were used in the cases of the compounds C1 to C38, C40 to C49 and C56 to C59; however, since the compounds C39 and C62 to C64 were anhydrides, there were used aqueous solutions prepared by adding water so that a concentration would be that of monohydrate to trihydrate. The moisture rate of the sample(s) was confirmed using a Karl Fischer moisture meter (pre-test moisture rate: A). Next, 1.0 g of each of these samples was added to a screw tube, and this screw tube, while remaining unsealed, was then left to stand still for 24 hours in a thermo-hygrostat set to 40° C. and 25% RH. A moisture rate after 24 hours was again measured (post-test moisture rate: B), followed by calculating a rate of reduction in moisture in a similar manner as above so as to evaluate the water retention property. Here, a comparative evaluation was performed on each hydrate of the compounds C1 to C38, C40 to C49 and C56 to C59 together with an aqueous solution(s) of the compound C39 having a concentration(s) corresponding to the numbers of these hydration waters.
(monohydrates in compounds C1 to C38, C40 to C49 and C56 to C59 of working examples C62 to C99, C103 to C116 with compound C39 of working example C100, compound C62 of comparative example C4, compound C63 of comparative example C7 and compound C64 of comparative example C10)
(dihydrates in compounds C1 to C38, C40 to C49 and C56 to C59 of working examples C62 to C99, C103 to C116 with compound C39 of working example C101, compound C62 of comparative example C5, compound C63 of comparative example C8 and compound C64 of comparative example C11)
(trihydrates in compounds C1 to C38, C40 to C49 and C56 to C59 of working examples C62 to C99, C103 to C116 with compound C39 of working example C102, compound C62 of comparative example C6, compound C63 of comparative example C9 and compound C64 of comparative example C12)

| SMILES | Pre-test moisture rate [%] | Post-test moisture rate [%] | Rate of reduction in moisture [%] |
| --- | --- | --- | --- |
| CS(=O)(=O)O.NC(CO)CO [Working example C72] | 16.1 | 16.0 | 0.4 |
| C[N+](C)(C)CC(O)CC(=O)O.O=C1O[C@H]([C@@H](O)CO)C([O-])=C1O [Working example C111] | 9.7 | 9.6 | 1.0 |
| CC(O)C(=O)O.N (stereo not drawn) [Working example C85] | 14.4 | 13.7 | 4.7 |
| O=C(O)CO.OCCNCCO [Working example C64] | 16.6 | 16.1 | 3.0 |
| OCC(O)CO [Comparative example C11] | 28.1 | 24.4 | 13.3 |
| C[N+](C)(C)CCO.O=P([O-])(O)O [Working example C94] | 8.2 | 8.0 | 2.8 |
| CC[N+](C)(C)CCO.CS(=O)(=O)[O-] [Working example C97] | 7.8 | 7.7 | 1.9 |
| NCC(O)C(O)C(O)C(O)CO.O=C1OC(C(O)CO)C(O)=C1O (stereo not drawn) [Working example C109] | 9.2 | 9.1 | 1.1 |
| O=C1OC(C(O)CO)C(O)=C1O.OCCN(CCO)CCO (stereo not drawn) [Comparative example C105] | 10.0 | 9.8 | 2.0 |
| F[B-](F)(F)F.[NH3+]C(CO)CO [Working example C73] | 16.8 | 15.9 | 5.5 |
| CC(O)C(=O)O.OCCNCCO [Working example C63] | 15.6 | 14.9 | 4.6 |
| CCCC[N+](CCCC)(CCCC)CCCC.[Br-] [Comparative example C5] | 10.1 | 8.6 | 15.1 |
| C[N+](C)(C)CCO.[Cl-] [Working example C96] | 11.4 | 10.7 | 6.0 |
| CCC(N)(CO)CO.O=C1O[C@H]([C@@H](O)CO)C(O)=C1O [Working example C107] | 10.9 | 10.6 | 2.8 |
| CCCC[N+](CCCC)(CCCC)CCCC.[Br-] [Comparative example C6] | 14.4 | 10.8 | 25.1 |
| CC(O)C(=O)[O-].C[N+](C)(C)CCO [Working example C90] | 8.5 | 8.1 | 4.9 |
| NC(CO)(CO)CO.O=C1OC(C(O)CO)C(O)=C1O (stereo not drawn) [Working example C108] | 10.8 | 10.5 | 2.8 |
| NC(CO)CO.O=C(O)CC(O)(CC(=O)O)C(=O)O [Working example C71] | 11.3 | 10.7 | 5.4 |
| CC(N)(CO)CO.CC(O)C(=O)O [Working example C114] | 15.6 | 15.2 | 2.8 |
| OCC(O)CO [Comparative example C12] | 37.0 | 31.9 | 13.7 |
| C[N+](C)(C)CCO.O=C([O-])CO [Working example C89] | 9.1 | 8.9 | 2.6 |
| Br.CCC(N)(CO)CO [Working example C79] | 15.3 | 13.9 | 8.9 |

Reference: patent US20250090437A1, “COSMETIC COMPOUNDING AGENT, COSMETIC AND PRODUCTION METHOD THEREOF” (MIYOSHI OIL & FAT CO., LTD., priority 2019, published 2025)
